Measurements: paper PMC11249646, “Small-Molecule Disruptors of the Interaction between Calcium- and Integrin-Binding Protein 1 and Integrin αIIbβ3 as Novel Antiplatelet Agents” (ACS Pharmacology & Translational Science, 2024)

These compounds were tested against T1, GST-CIB1 : F-scrambled peptide (Homo sapiens, UniProt Q99828) (assay: FP scrambled-peptide counter screen, 384-well format). Conditions: F-scrambled peptide.
T1 construct: made in house; host or cells: BL-21 plus RIL cells (E. coli)
T1 sequence (Q99828 1-191): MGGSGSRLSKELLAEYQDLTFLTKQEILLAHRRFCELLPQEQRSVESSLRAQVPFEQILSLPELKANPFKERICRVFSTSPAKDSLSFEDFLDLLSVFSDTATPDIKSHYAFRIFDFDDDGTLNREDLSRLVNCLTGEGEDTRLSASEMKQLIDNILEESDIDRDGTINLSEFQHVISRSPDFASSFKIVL
Assay type: binding

| Structure (SMILES) | 384-well COUNTERSCREEN Efficacy (%) |
| --- | --- |
| N[C@@H](Cc1ccc(Oc2cc(I)c(O)c(I)c2)c(I)c1)C(=O)O [NCGC00344545-01] | 51% |
| Cc1cc(SCc2sc(-c3ccc(Cl)c(Cl)c3)nc2C)ccc1OCc1nnn[nH]1.O=C(O)C(F)(F)F [NCGC00344871-01] | 167% |
| O=C(Nc1nc(-c2ccccc2)cs1)c1ccncc1NS(=O)(=O)c1ccc(Cl)cc1.O=C(O)C(F)(F)F [NCGC00344892-02] | 55% |

Same assay, conditions: F-scrambled peptide; *: Curve in opposite direction

| Structure (SMILES) | 384-well COUNTERSCREEN Confirm? |
| --- | --- |
| O=C(Nc1nc(-c2ccccc2)cs1)c1ccncc1NS(=O)(=O)c1ccc(Cl)cc1.O=C(O)C(F)(F)F [NCGC00344892-02] | YES |

Same assay, conditions: F-scrambled peptide; read-out: 384-well COUNTERSCREEN IC50

| Structure (SMILES) | IC50 |
| --- | --- |
| N[C@@H](Cc1ccc(Oc2cc(I)c(O)c(I)c2)c(I)c1)C(=O)O [NCGC00344545-01] | 3.1 µM |
| Cc1cc(SCc2sc(-c3ccc(Cl)c(Cl)c3)nc2C)ccc1OCc1nnn[nH]1.O=C(O)C(F)(F)F [NCGC00344871-01] | 44.7 µM |
| O=C(Nc1nc(-c2ccccc2)cs1)c1ccncc1NS(=O)(=O)c1ccc(Cl)cc1.O=C(O)C(F)(F)F [NCGC00344892-02] | > 120 µM |

The compounds below were run against T2, CIB1 and αIIb interaction (CIB1-GST : F-αIIb peptide) (Homo sapiens, UniProt Q99828) (assay: FP assay, 1536-well qHTS format (primary and confirmatory screen)). Conditions: confirmatory screen, YES/NO call.
T2 construct: made in house; host or cells: BL-21 plus RIL cells (E. coli)
T2 sequence (Q99828 1-191): T1 sequence (Q99828 1-191)
Assay type: binding

| Structure (SMILES) | CONFIRMATORY SCREEN Confirm? |
| --- | --- |
| N[C@@H](Cc1ccc(Oc2cc(I)c(O)c(I)c2)c(I)c1)C(=O)O [NCGC00344545-01] | YES |
| Cc1cc(SCc2sc(-c3ccc(Cl)c(Cl)c3)nc2C)ccc1OCc1nnn[nH]1.O=C(O)C(F)(F)F [NCGC00344871-01] | YES |
| O=C(Nc1nc(-c2ccccc2)cs1)c1ccncc1NS(=O)(=O)c1ccc(Cl)cc1.O=C(O)C(F)(F)F [NCGC00344892-02] | YES |

Same assay, conditions: confirmatory screen, qHTS curve class; negative sign = inhibitory curve

| Structure (SMILES) | CONFIRMATORY SCREEN Curve Class |
| --- | --- |
| N[C@@H](Cc1ccc(Oc2cc(I)c(O)c(I)c2)c(I)c1)C(=O)O [NCGC00344545-01] | -1.2 |
| Cc1cc(SCc2sc(-c3ccc(Cl)c(Cl)c3)nc2C)ccc1OCc1nnn[nH]1.O=C(O)C(F)(F)F [NCGC00344871-01] | -1.2 |
| O=C(Nc1nc(-c2ccccc2)cs1)c1ccncc1NS(=O)(=O)c1ccc(Cl)cc1.O=C(O)C(F)(F)F [NCGC00344892-02] | -1.2 |

Same assay, conditions: confirmatory screen; negative = inhibition

| Structure (SMILES) | CONFIRMATORY SCREEN Efficacy (%) |
| --- | --- |
| N[C@@H](Cc1ccc(Oc2cc(I)c(O)c(I)c2)c(I)c1)C(=O)O [NCGC00344545-01] | -60% |
| Cc1cc(SCc2sc(-c3ccc(Cl)c(Cl)c3)nc2C)ccc1OCc1nnn[nH]1.O=C(O)C(F)(F)F [NCGC00344871-01] | -63% |
| O=C(Nc1nc(-c2ccccc2)cs1)c1ccncc1NS(=O)(=O)c1ccc(Cl)cc1.O=C(O)C(F)(F)F [NCGC00344892-02] | -69% |

Same assay, conditions: confirmatory screen; read-out: CONFIRMATORY SCREEN IC50

| Structure (SMILES) | IC50 |
| --- | --- |
| N[C@@H](Cc1ccc(Oc2cc(I)c(O)c(I)c2)c(I)c1)C(=O)O [NCGC00344545-01] | 15.8 µM |
| Cc1cc(SCc2sc(-c3ccc(Cl)c(Cl)c3)nc2C)ccc1OCc1nnn[nH]1.O=C(O)C(F)(F)F [NCGC00344871-01] | 15.8 µM |
| O=C(Nc1nc(-c2ccccc2)cs1)c1ccncc1NS(=O)(=O)c1ccc(Cl)cc1.O=C(O)C(F)(F)F [NCGC00344892-02] | 25.1 µM |

Same assay, conditions: qHTS primary screen hits, Table S2; negative = inhibition

| Structure (SMILES) | Efficacy (%) |
| --- | --- |
| N[C@@H](Cc1ccc(Oc2cc(I)c(O)c(I)c2)c(I)c1)C(=O)O [NCGC00344545-01] | -39% |
| Cc1cc(SCc2sc(-c3ccc(Cl)c(Cl)c3)nc2C)ccc1OCc1nnn[nH]1.O=C(O)C(F)(F)F [NCGC00344871-01] | -38% |

Same assay, conditions: qHTS primary screen hits, Table S2; negative sign = inhibitory curve; several classes where COUNT > 1

| Structure (SMILES) | Curve Class |
| --- | --- |
| N[C@@H](Cc1ccc(Oc2cc(I)c(O)c(I)c2)c(I)c1)C(=O)O [NCGC00344545-01] | -2.2 |
| Cc1cc(SCc2sc(-c3ccc(Cl)c(Cl)c3)nc2C)ccc1OCc1nnn[nH]1.O=C(O)C(F)(F)F [NCGC00344871-01] | -1.2 |

Same assay, conditions: qHTS primary screen hits, Table S2; read-out: IC50

| Structure (SMILES) | IC50 |
| --- | --- |
| N[C@@H](Cc1ccc(Oc2cc(I)c(O)c(I)c2)c(I)c1)C(=O)O [NCGC00344545-01] | 39.8 µM |
| Cc1cc(SCc2sc(-c3ccc(Cl)c(Cl)c3)nc2C)ccc1OCc1nnn[nH]1.O=C(O)C(F)(F)F [NCGC00344871-01] | 17.8 µM |

The compounds below were run against T3, CIB1 and αIIb interaction (GST-CIB1 : F-αIIb peptide) (Homo sapiens, UniProt Q99828) (assay: FP assay, 384-well format (screen)). Conditions: F-αIIb peptide.
T3 construct: made in house; host or cells: BL-21 plus RIL cells (E. coli)
T3 sequence (Q99828 1-191): T1 sequence (Q99828 1-191)
Assay type: binding
Parameters: 384-well SCREEN Efficacy (%): concentration or dose not given beside the values

| Structure (SMILES) | 384-well SCREEN Efficacy (%) |
| --- | --- |
| N[C@@H](Cc1ccc(Oc2cc(I)c(O)c(I)c2)c(I)c1)C(=O)O [NCGC00344545-01] | 46% |
| Cc1cc(SCc2sc(-c3ccc(Cl)c(Cl)c3)nc2C)ccc1OCc1nnn[nH]1.O=C(O)C(F)(F)F [NCGC00344871-01] | 42% |
| O=C(Nc1nc(-c2ccccc2)cs1)c1ccncc1NS(=O)(=O)c1ccc(Cl)cc1.O=C(O)C(F)(F)F [NCGC00344892-02] | 31% |

Same assay, conditions: F-αIIb peptide; YES/NO

| Structure (SMILES) | 384-well SCREEN Confirm? |
| --- | --- |
| N[C@@H](Cc1ccc(Oc2cc(I)c(O)c(I)c2)c(I)c1)C(=O)O [NCGC00344545-01] | YES |
| O=C(Nc1nc(-c2ccccc2)cs1)c1ccncc1NS(=O)(=O)c1ccc(Cl)cc1.O=C(O)C(F)(F)F [NCGC00344892-02] | YES |

Same assay, conditions: F-αIIb peptide; read-out: 384-well SCREEN IC50

| Structure (SMILES) | IC50 |
| --- | --- |
| N[C@@H](Cc1ccc(Oc2cc(I)c(O)c(I)c2)c(I)c1)C(=O)O [NCGC00344545-01] | 10 µM |
| Cc1cc(SCc2sc(-c3ccc(Cl)c(Cl)c3)nc2C)ccc1OCc1nnn[nH]1.O=C(O)C(F)(F)F [NCGC00344871-01] | > 120 µM |
| O=C(Nc1nc(-c2ccccc2)cs1)c1ccncc1NS(=O)(=O)c1ccc(Cl)cc1.O=C(O)C(F)(F)F [NCGC00344892-02] | 35.5 µM |

The compounds below were run against T1, GST-CIB1 : F-scrambled peptide (assay: FP scrambled-peptide counter screen, 1536-well format). Conditions: scrambled-peptide counterscreen.
Assay type: binding

| Structure (SMILES) | COUNTERSCREEN Efficacy (%) |
| --- | --- |
| N[C@@H](Cc1ccc(Oc2cc(I)c(O)c(I)c2)c(I)c1)C(=O)O [NCGC00344545-01] | -19% |
| Cc1cc(SCc2sc(-c3ccc(Cl)c(Cl)c3)nc2C)ccc1OCc1nnn[nH]1.O=C(O)C(F)(F)F [NCGC00344871-01] | 204% |
| O=C(Nc1nc(-c2ccccc2)cs1)c1ccncc1NS(=O)(=O)c1ccc(Cl)cc1.O=C(O)C(F)(F)F [NCGC00344892-02] | 13% |

Same assay, conditions: scrambled-peptide counterscreen, YES/NO call

| Structure (SMILES) | COUNTERSCREEN Confirm? |
| --- | --- |
| N[C@@H](Cc1ccc(Oc2cc(I)c(O)c(I)c2)c(I)c1)C(=O)O [NCGC00344545-01] | YES |
| Cc1cc(SCc2sc(-c3ccc(Cl)c(Cl)c3)nc2C)ccc1OCc1nnn[nH]1.O=C(O)C(F)(F)F [NCGC00344871-01] | YES |
| O=C(Nc1nc(-c2ccccc2)cs1)c1ccncc1NS(=O)(=O)c1ccc(Cl)cc1.O=C(O)C(F)(F)F [NCGC00344892-02] | YES |

Same assay, conditions: scrambled-peptide counterscreen, qHTS curve class

| Structure (SMILES) | COUNTERSCREEN Curve Class |
| --- | --- |
| N[C@@H](Cc1ccc(Oc2cc(I)c(O)c(I)c2)c(I)c1)C(=O)O [NCGC00344545-01] | 4 |
| O=C(Nc1nc(-c2ccccc2)cs1)c1ccncc1NS(=O)(=O)c1ccc(Cl)cc1.O=C(O)C(F)(F)F [NCGC00344892-02] | 4 |

Same assay, conditions: scrambled-peptide counterscreen; read-out: COUNTERSCREEN IC50

| Structure (SMILES) | IC50 |
| --- | --- |
| Cc1cc(SCc2sc(-c3ccc(Cl)c(Cl)c3)nc2C)ccc1OCc1nnn[nH]1.O=C(O)C(F)(F)F [NCGC00344871-01] | 79.4 µM |
